One compound from patent US20060005273A1, “Novel maize split-seed explant and methods for in vitro regeneration of maize” (University of Toledo, priority 2004, published 2006) can be followed below.

Assay [1] has as its system maize split-seed explant. Nature of the assay: direct multiple shoot formation on split-seed explant shoot induction medium. It is filed as cell-based. To be noted: BAP alone. The procedure:
Another embodiment of the present invention provides a “split-seed explant shoot induction medium.” When a split-seed explant is exposed to a “split-seed explant shoot induction medium” and incubated under a 16-h soft white light at 27° C., the split-seed explant generates at least one shoot. A “split-seed explant shoot induction medium” comprises MS basal salts and B5 vitamins supplemented with a cytokinin or mixtures of cytokinins. A preferred cytokinin is BAP. The concentration of a cytokinin may range from 1.0 mg/l to 6.0 mg/l. Preferably the concentration of a cytokinin ranges from 1.0 mg/l to 5.0 mg/l and more preferably ranges from 1.5 mg/l to 4.5 mg/l. In a preferred embodiment, a cytokinin is BAP and is at a concentration of 3.0 mg/l to 4.0 mg/l. In a preferred embodiment, BAP is preferably at a concentration of 4.0 mg/l. A “split-seed explant shoot induction medium” further comprises glycine at a preferable concentration of 1.0 mg/l, casein hydrolysate at a preferable concentration of 400 mg/l, and sucrose at a preferable concentration of 30 g/l. A “split-seed explant shoot induction medium” may be solidified with 8.0 g/l agar. The pH of the medium is adjusted to 5.8 prior to adding the agar and the medium is autoclaved at 121° C. for 20 minutes.
In another embodiment, a “split-seed explant shoot induction medium” further comprises 6-furfurylaminopurine (“kinetin”). […]

For assay [2], the system named is embryogenic callus from maize split-seed explant. Briefly: shoot regeneration from embryogenic callus on callus/somatic embryo shoot induction medium. To be noted: maximum period of two months. It is filed as cell-based. The protocol: Embryogenic calli/somatic embryos are transferred to a “callus/somatic embryo shoot induction medium” (which is an embodiment of the present and is described below) and allowed to develop shoots. The cultures are maintained at 27° C. under 16-hour soft white light. Shoot regeneration frequency is determined by calculating the number of embryogenic calli producing shoots and the number of shoots per callus.
A “callus/somatic embryo shoot induction medium” comprises MS basal salts and B5 vitamins supplemented with a cytokinin, or mixtures of cytokinins. A preferred cytokinin is BAP. The concentration of a cytokinin preferably ranges from 0.1 mg/l to 2.0 mg/l. Preferably the concentration of a cytokinin ranges from […] and most preferably ranges from 0.75 mg/l to 1.0 mg/l. In a preferred embodiment, a cytokinin is BAP is preferably at a concentration of 1.0 mg/l.
White and soft callus formed on the surface of split-seed explants is removed after one week for further growth on “primary calli maintenance medium” (FIG. 3B). Callus initiation from the split-seed is observed in four day old cultures. After one month in culture, highly proliferated calli (FIG. 3C) are transferred to an “embryogenic callus induction medium” containing 2,4-D at 0.1 mg/l and BAP at 0.5 mg/l to maintain embryogenic callus (FIG. 3D). The callus is sub-cultured every two weeks. […]

SMILES strings stand for the structures.

`c1ccc(CNc2ncnc3nc[nH]c23)cc1` [BAP, 6-benzylamino purine]: the multiple shoot induction entry in assay [1] is listed as “induces multiple shoots”. In assay [2], the “BAP concentration giving the highest number of shoots” value came out at 1.0 mg/L.
